From patent US7087717B2, “Sp110, a polypeptide component of the nuclear body” (The General Hospital Corporation, priority 2000, dated 2006)

Columns and labels:
[1] = system: human coronary artery smooth muscle cells (hCASMCs) and human umbilical vein endothelial cells (HUVECs); assay: Sp110 mRNA expression after cytokine exposure; type: cell-based; conditions: 200 u/ml
Description: Sp110 expression was also examined in human coronary artery smooth muscle cells (hCASMCs) and human umbilical vein endothelial, cells (HUVECs) following exposure to IFNα (200 u/ml). Expression of Sp110 mRNA was induced within 4 hours and reached a maximum level between 8 and 24 hours.

[2] = system: NB4 cells; assay: Sp110 mRNA level by RNA blot after cellular differentiation; type: cell-based, human; conditions: 1 μM, 48 hours
Description: To investigate the expression of Sp110 in cells of the monocyte/granulocyte lineage, RNA was prepared from the myeloid precursor cell lines HL60 and NB4 (HL60 cells are available from the American Type Culture Collection, Manassas, Va.). […] RNA was fractionated in formaldehyde-agarose gels (5 μg/lane) and equal loading of RNA was confirmed by staining 28S and 18S ribosomal RNA with ethidium bromide. […] Membranes were washed and analyzed by autoradiography. […] To examine the effect of cellular differentiation on Sp110 mRNA, NB4 cells were treated for 48 hours with all trans retinoic acid (ATRA) (1 μM).

Row | Compound | time to induction of Sp110 mRNA expression [1] [h] | level of Sp110 mRNA [2]
1 | IFNα | ≤ 4 | 
2 | CC1=C(/C=C/C(C)=C/C=C/C(C)=C/C(=O)O)C(C)(C)CCC1 [ATRA, all trans retinoic acid] |  | increased
